This is an account of results in ChEMBL document CHEMBL5634187, “Identification of Selective Imidazopyridine CSF1R Inhibitors” (ACS Med Chem Lett, 2024).

Data set [1] deals with CYP450 (isoform not stated) (Homo sapiens, UniProt P04798+P05177+P05181+P08684+P10632+P10635+P11509+P11712+P13584+P20813+P20815+P20853+P24462+P24903+P33260+P33261+P51589+P78329+P98187+Q02928+Q08477+Q16678+Q16696+Q5TCH4+Q6VVX0+Q7Z449+Q8TAV3+Q96SQ9+Q9HB55). The data set can be described thus: in vitro.
Data set [2] in a line: physchem. The following applies: buffer, pH 7.4.
Description: Solubility of compound at pH 7.4
Data set [3] in a line: physchem. The following applies: octanol/water.
Description: Lipophilicity, logD of the compound
Data set [4] can be described thus: in vitro. To be noted: human, Caco-2.
Description: Permeability in human Caco-2 cells
Data set [5] is described as follows: in vitro. To be noted: human, liver microsomes.
Description: Intrinsic clearance in human liver microsomes
A short description of data set [6]: in vitro. The following applies: rat, liver microsomes. In general terms: Liver microsomes are a subcellular fraction often used to study metabolism.
Description: Intrinsic clearance in rat liver microsomes
For the next data set, the target named is Cytochrome P450 3A4 (Homo sapiens, UniProt P08684). The data set can be described thus: Inhibition of CYP450 3A4 (unknown origin) using midazolam as substrate. Type of data set: ADME.
Chain of Cytochrome P450 3A4 (P08684 whole entry): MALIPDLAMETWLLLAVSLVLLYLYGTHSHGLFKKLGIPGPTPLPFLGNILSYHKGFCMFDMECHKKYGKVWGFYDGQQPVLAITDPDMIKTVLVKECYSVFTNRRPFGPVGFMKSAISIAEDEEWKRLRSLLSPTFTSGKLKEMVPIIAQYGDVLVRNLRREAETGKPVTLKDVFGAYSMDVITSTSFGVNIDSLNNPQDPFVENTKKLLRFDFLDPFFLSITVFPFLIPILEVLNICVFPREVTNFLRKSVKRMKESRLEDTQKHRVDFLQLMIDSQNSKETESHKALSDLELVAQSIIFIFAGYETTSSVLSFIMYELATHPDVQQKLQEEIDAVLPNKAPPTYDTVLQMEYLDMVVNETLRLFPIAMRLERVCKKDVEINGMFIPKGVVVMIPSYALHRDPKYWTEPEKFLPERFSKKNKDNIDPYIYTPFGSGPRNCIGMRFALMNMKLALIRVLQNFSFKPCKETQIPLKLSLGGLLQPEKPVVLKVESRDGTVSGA
Data set [7] in a line: in vivo. The following applies: Sprague-Dawley, rat, iv, 1 mg/kg.
The nature of data set [8]: in vivo. The following applies: Sprague-Dawley, rat, iv, 1 mg/kg. This is another data set of the same source.
Description: Half-life in Sprague-Dawley rat at 1 mg/kg, iv
Data set [9] can be described thus: in vivo. The following applies: Sprague-Dawley, rat, iv, 1 mg/kg. The source holds these as a separate data set.
Description: Clearance in Sprague-Dawley rat at 1 mg/kg, iv
Data set [10] can be described thus: in vivo. The following applies: Sprague-Dawley, rat, iv, 1 mg/kg. This is another data set of the same source.
Data set [11] in a line: in vivo. To be noted: Sprague-Dawley, rat, po, 3 mg/kg.
A short description of data set [12]: in vivo. To be noted: Sprague-Dawley, rat, po, 3 mg/kg. The source holds these as a separate data set.
Data set [13] can be described thus: in vivo. The following applies: Sprague-Dawley, rat, po, 3 mg/kg. This is another data set of the same source.
Description: Half-life in Sprague-Dawley rat at 3 mg/kg, po
Data set [14] is described as follows: in vivo. To be noted: Sprague-Dawley, rat, po, 3 mg/kg. The source holds these as a separate data set.
Data set [15] concerns the target Mast/stem cell growth factor receptor Kit (Homo sapiens, UniProt P10721).
Description: Inhibition of c-Kit (unknown origin)

Values after ≈ are worked out from the molar mass of the structure shown.

Chain of Mast/stem cell growth factor receptor Kit (P10721 whole entry): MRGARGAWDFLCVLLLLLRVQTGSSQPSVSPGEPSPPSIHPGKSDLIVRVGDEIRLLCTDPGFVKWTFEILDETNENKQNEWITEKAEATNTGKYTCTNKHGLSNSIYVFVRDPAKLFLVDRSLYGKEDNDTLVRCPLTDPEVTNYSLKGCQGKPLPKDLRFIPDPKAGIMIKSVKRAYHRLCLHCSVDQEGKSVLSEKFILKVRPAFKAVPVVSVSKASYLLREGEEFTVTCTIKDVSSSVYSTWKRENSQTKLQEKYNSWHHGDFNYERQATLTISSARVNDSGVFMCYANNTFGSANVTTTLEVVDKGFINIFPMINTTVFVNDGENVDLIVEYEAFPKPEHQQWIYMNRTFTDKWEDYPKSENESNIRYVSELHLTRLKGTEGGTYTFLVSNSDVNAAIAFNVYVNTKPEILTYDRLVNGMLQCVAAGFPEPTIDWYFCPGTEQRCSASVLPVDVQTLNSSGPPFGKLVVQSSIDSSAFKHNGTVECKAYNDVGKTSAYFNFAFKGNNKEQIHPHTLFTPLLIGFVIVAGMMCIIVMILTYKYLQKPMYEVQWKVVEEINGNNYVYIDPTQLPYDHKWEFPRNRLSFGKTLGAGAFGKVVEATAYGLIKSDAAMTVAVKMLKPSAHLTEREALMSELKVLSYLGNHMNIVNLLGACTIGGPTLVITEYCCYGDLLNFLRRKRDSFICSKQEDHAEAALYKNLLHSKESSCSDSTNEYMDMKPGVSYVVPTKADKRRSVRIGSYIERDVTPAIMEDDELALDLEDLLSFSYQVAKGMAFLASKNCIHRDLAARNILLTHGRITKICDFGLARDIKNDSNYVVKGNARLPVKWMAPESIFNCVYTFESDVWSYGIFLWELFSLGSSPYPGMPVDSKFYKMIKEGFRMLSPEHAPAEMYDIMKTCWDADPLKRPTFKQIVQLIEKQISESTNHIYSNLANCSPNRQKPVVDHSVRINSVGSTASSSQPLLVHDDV

Take `COc1ccc(COc2ccc(Cn3cnc4cc(C(=O)N(C)C)cnc43)cc2OC)cn1`: the half-maximal inhibitory concentration (IC50) – broadly, the midpoint of a concentration-inhibition curve – in data set [1] was over 10 µM.

For the molecule `COc1ccc(COc2ccc(Cn3cnc4cc(N5CCN(C)CC5)cnc43)cc2OC)cn1`, the solubility – broadly, the dissolved amount per volume that the medium holds – in “physchem [2]” was over 0.45 mg/mL. The logD (usually lipophilicity at a set pH, counting ionised and neutral species) in the data set “physchem [3]” turned out to be 2.3. Besides, the Papp – broadly, a coefficient for how fast a substance crosses the barrier – in “in vitro [4]” amounted to 290 nm/s. Further, the microsomal CLint – broadly, a measure of how fast metabolising enzymes remove a compound, apart from limits set by blood flow – came to 33 µL/min/mg in the data set “in vitro [5]” and 130 µL/min/mg in “in vitro [6]”. For the same molecule, the IC50 in data set [1] was over 10 µM.

In turn, `COc1ccc(COc2ccc(Cn3cnc4cc(OC5CCNCC5)cnc43)cc2OC)cn1` showed an IC50 in [1] of over 10 µM.

In the case of `COc1ccc(COc2ccc(Cn3cnc4cc(C#CC5CCNC5)cnc43)cc2OC)cn1` (centres undefined), the IC50 at Cytochrome P450 3A4 was determined as 6.6 µM. Besides, the AUC(0-inf) (commonly total exposure, with the tail of the curve extrapolated) in the data set “in vivo [7]” came out at 0.542 µg·h/mL; in “in vivo [11]”, 0.625 µg·h/mL. In addition, the figures for the half-life in the data set “in vivo [8]” and in “in vivo [13]” were 2 h and 1.7 h, respectively. Besides, the clearance (commonly the rate of elimination divided by the concentration) in “in vivo [9]” worked out at 1.86 L/h/kg. Further, the Vd – broadly, a proportionality between amount in the body and measured concentration, not a real space – in “in vivo [10]” came out at 4.89 L/kg. Also, the highest level in the data set “in vivo [12]” (Cmax) was 0.108 µg/mL. Besides, the bioavailability (commonly dose-corrected exposure relative to a reference, in per cent) in “in vivo [14]” turned out to be 36%. This molecule also returned a solubility in the data set “physchem [2]” of 0.057 mg/mL (≈ 121 µM). The logD in “physchem [3]” came to 1.5. This molecule displayed a Papp in “in vitro [4]” of 51 nm/s. The values for the microsomal CLint in “in vitro [5]” and in “in vitro [6]” were 16 µL/min/mg and 19 µL/min/mg, respectively.

In turn, `Cc1nc(-c2cnc(NC(C)C)n(C)c2=O)ccc1Oc1ccnc(-c2cnn(C)c2)c1` [VIMSELTINIB] had an IC50 in data set [15] of 0.48 µM.

Molecule `COc1ccc(COc2ccc(Cc3cnc(N)nc3N)cc2OC)cc1` [GW632580X] gave a solubility in “physchem [2]” of 0.0012 mg/mL (≈ 3.27 µM). In “physchem [3]”, this molecule displayed a logD of 2.6. Moreover, the Papp in “in vitro [4]” was found to be 110 nm/s. Further, the IC50 in data set [1] was over 10 µM.

In data set [1], `COc1ccc(COc2ccc(Cn3cnc4cc(C(=O)N5CC6(COC6)C5)cnc43)cc2OC)cn1` returned a half-maximal inhibitory concentration (IC50) of over 10 µM.

The molecule `COc1ccc(COc2ccc(Cn3cnc4cc(-n5cc(C(C)(C)N)nn5)cnc43)cc2OC)cn1` came in with a solubility in “physchem [2]” of 0.013 mg/mL (≈ 26 µM). For the same molecule, the logD in “physchem [3]” amounted to 1.6. Also, the Papp in the data set “in vitro [4]” is 20 nm/s. Further, the results for the microsomal CLint in the data set “in vitro [5]” and in “in vitro [6]” were 21 µL/min/mg and under 7.2 µL/min/mg, respectively. The same molecule had an IC50 in data set [1] of over 10 µM.
